# Laboratory results from ChEMBL document CHEMBL3885881, “DrugMatrix”.
# Species: Rattus norvegicus
# Test: DrugMatrix - Regimen: Daily Repeat
# Type: toxicity, organism-based, Sprague-Dawley
# Design: regimen Daily Repeat, gender Male, age 6-8 weeks
# Details: in vivo, po, route oral GAVAGE, vehicle .5 % CMC; for ABSOLUTE BASOPHIL / ABSOLUTE EOSINOPHIL / ABSOLUTE LYMPHOCYTE / ABSOLUTE MONOCYTE / ABSOLUTE SEGMENTED NEUTROPHIL / BASOPHIL / EOSINOPHIL / ERYTHROCYTE COUNT / HEMATOCRIT / HEMOGLOBIN / LEUKOCYTE COUNT / LYMPHOCYTE / MEAN CORPUSCULAR HEMOGLOBIN / MEAN CORPUSCULAR HEMOGLOBIN CONCENTRATION / MEAN CORPUSCULAR VOLUME / MONOCYTE / NEUTROPHIL / NUCLEATED RED BLOOD CELLS / PLATELET COUNT: tissue Blood; for ALANINE AMINOTRANSFERASE / ALBUMIN / ALKALINE PHOSPHATASE / ASPARTATE AMINOTRANSFERASE / BLOOD UREA NITROGEN / CARBON DIOXIDE / CHLORIDE / CHOLESTEROL / CREATINE PHOSPHOKINASE / CREATININE / GLUCOSE / LACTATE DEHYDROGENASE / LIPASE / PHOSPHORUS / POTASSIUM / SODIUM / TOTAL BILIRUBIN / TOTAL PROTEIN / URIC ACID: tissue Plasma
# [1] = 3 mg/kg, 120 h, dose level Low, time 5 day
# [2] = 30 mg/kg, 72 h, dose level High, time 3 day
# [3] = 30 mg/kg, 120 h, dose level High, time 5 day
compound,measurement,setting,value
CC(=O)Nc1ccc2c(c1)Cc1ccccc1-2 [2-ACETYLAMINOFLUORENE],ABSOLUTE BASOPHIL,[1],0 CELLS/uL
same,ABSOLUTE EOSINOPHIL,[1],0 CELLS/uL
same,ABSOLUTE LYMPHOCYTE,[1],14012 CELLS/uL
same,ABSOLUTE MONOCYTE,[1],174.33 CELLS/uL
same,ABSOLUTE SEGMENTED NEUTROPHIL,[1],1113.67 CELLS/uL
same,BASOPHIL,[1],0%
same,EOSINOPHIL,[1],0%
same,ERYTHROCYTE COUNT,[1],5.69 x10E6/uL
same,HEMATOCRIT,[1],34.77%
same,HEMOGLOBIN,[1],13.53 G/DL
same,LEUKOCYTE COUNT,[1],15.3 x10E3/uL
same,LYMPHOCYTE,[1],92%
same,MEAN CORPUSCULAR HEMOGLOBIN,[1],23.73 pg
same,MEAN CORPUSCULAR HEMOGLOBIN CONCENTRATION,[1],39 G/DL
same,MEAN CORPUSCULAR VOLUME,[1],61 fL
same,MONOCYTE,[1],1%
same,NEUTROPHIL,[1],7%
same,NUCLEATED RED BLOOD CELLS,[1],0 /100WBC
same,PLATELET COUNT,[1],1174.67 x10E3/uL
same,ALANINE AMINOTRANSFERASE,[1],51 u/L
same,ALBUMIN,[1],4.03 G/DL
same,ALKALINE PHOSPHATASE,[1],355 u/L
same,ASPARTATE AMINOTRANSFERASE,[1],106.67 u/L
same,BLOOD UREA NITROGEN,[1],16.67 mg/dL
same,CARBON DIOXIDE,[1],29.67 mmol/L
same,CHLORIDE,[1],98 MEQ/L
same,CHOLESTEROL,[1],70.67 mg/dL
same,CREATINE PHOSPHOKINASE,[1],459.33 u/L
same,CREATININE,[1],0.16 mg/dL
same,GLUCOSE,[1],147 mg/dL
same,LACTATE DEHYDROGENASE,[1],770.33 u/L
same,LIPASE,[1],9.67 u/L
same,PHOSPHORUS,[1],11.37 mg/dL
same,POTASSIUM,[1],6.6 MEQ/L
same,SODIUM,[1],139.93 MEQ/L
same,TOTAL BILIRUBIN,[1],0.23 mg/dL
same,TOTAL PROTEIN,[1],5.9 G/DL
same,URIC ACID,[1],1.5 mg/dL
same,ABSOLUTE BASOPHIL,[2],0 CELLS/uL
same,ABSOLUTE EOSINOPHIL,[2],86 CELLS/uL
same,ABSOLUTE LYMPHOCYTE,[2],12836 CELLS/uL
same,ABSOLUTE MONOCYTE,[2],177.33 CELLS/uL
same,ABSOLUTE SEGMENTED NEUTROPHIL,[2],1034 CELLS/uL
same,BASOPHIL,[2],0%
same,EOSINOPHIL,[2],0.67%
same,ERYTHROCYTE COUNT,[2],5.86 x10E6/uL
same,HEMATOCRIT,[2],36.83%
same,HEMOGLOBIN,[2],14.6 G/DL
same,LEUKOCYTE COUNT,[2],14.13 x10E3/uL
same,LYMPHOCYTE,[2],90.67%
same,MEAN CORPUSCULAR HEMOGLOBIN,[2],24.9 pg
same,MEAN CORPUSCULAR HEMOGLOBIN CONCENTRATION,[2],39.6 G/DL
same,MEAN CORPUSCULAR VOLUME,[2],62.87 fL
same,MONOCYTE,[2],1.33%
same,NEUTROPHIL,[2],7.33%
same,NUCLEATED RED BLOOD CELLS,[2],0 /100WBC
same,PLATELET COUNT,[2],1279.33 x10E3/uL
same,ALANINE AMINOTRANSFERASE,[2],53.67 u/L
same,ALBUMIN,[2],3.73 G/DL
same,ALKALINE PHOSPHATASE,[2],368.67 u/L
same,ASPARTATE AMINOTRANSFERASE,[2],126.33 u/L
same,BLOOD UREA NITROGEN,[2],15 mg/dL
same,CARBON DIOXIDE,[2],22.67 mmol/L
same,CHLORIDE,[2],102 MEQ/L
same,CHOLESTEROL,[2],53 mg/dL
same,CREATINE PHOSPHOKINASE,[2],1143.67 u/L
same,CREATININE,[2],0.21 mg/dL
same,GLUCOSE,[2],158.67 mg/dL
same,LACTATE DEHYDROGENASE,[2],858.33 u/L
same,LIPASE,[2],10.33 u/L
same,PHOSPHORUS,[2],10.73 mg/dL
same,POTASSIUM,[2],6.07 MEQ/L
same,SODIUM,[2],142.33 MEQ/L
same,TOTAL BILIRUBIN,[2],0.2 mg/dL
same,TOTAL PROTEIN,[2],5.3 G/DL
same,URIC ACID,[2],1.47 mg/dL
same,ABSOLUTE BASOPHIL,[3],0 CELLS/uL
same,ABSOLUTE EOSINOPHIL,[3],0 CELLS/uL
same,ABSOLUTE LYMPHOCYTE,[3],17906.67 CELLS/uL
same,ABSOLUTE MONOCYTE,[3],125.33 CELLS/uL
same,ABSOLUTE SEGMENTED NEUTROPHIL,[3],368 CELLS/uL
same,BASOPHIL,[3],0%
same,EOSINOPHIL,[3],0%
same,ERYTHROCYTE COUNT,[3],6.43 x10E6/uL
same,HEMATOCRIT,[3],39.07%
same,HEMOGLOBIN,[3],15.4 G/DL
same,LEUKOCYTE COUNT,[3],18.4 x10E3/uL
same,LYMPHOCYTE,[3],97.33%
same,MEAN CORPUSCULAR HEMOGLOBIN,[3],24 pg
same,MEAN CORPUSCULAR HEMOGLOBIN CONCENTRATION,[3],39.43 G/DL
same,MEAN CORPUSCULAR VOLUME,[3],60.83 fL
same,MONOCYTE,[3],0.67%
same,NEUTROPHIL,[3],2%
same,NUCLEATED RED BLOOD CELLS,[3],0 /100WBC
same,PLATELET COUNT,[3],1336 x10E3/uL
same,ALANINE AMINOTRANSFERASE,[3],44 u/L
same,ALBUMIN,[3],3.8 G/DL
same,ALKALINE PHOSPHATASE,[3],317.33 u/L
same,ASPARTATE AMINOTRANSFERASE,[3],100.33 u/L
same,BLOOD UREA NITROGEN,[3],20.33 mg/dL
same,CARBON DIOXIDE,[3],27.33 mmol/L
same,CHLORIDE,[3],104.33 MEQ/L
same,CHOLESTEROL,[3],46.67 mg/dL
same,CREATINE PHOSPHOKINASE,[3],551.33 u/L
same,CREATININE,[3],0.22 mg/dL
same,GLUCOSE,[3],146.33 mg/dL
same,LACTATE DEHYDROGENASE,[3],501 u/L
same,LIPASE,[3],9.33 u/L
same,PHOSPHORUS,[3],11.33 mg/dL
same,POTASSIUM,[3],6.51 MEQ/L
same,SODIUM,[3],146.97 MEQ/L
same,TOTAL BILIRUBIN,[3],0.17 mg/dL
same,TOTAL PROTEIN,[3],5.4 G/DL
same,URIC ACID,[3],1.93 mg/dL
